Measured values taken from patent US7288407B2, “Stable cytochrome P450 24 (CYP24) expressing cell line and methods and uses thereof” (Cytochroma, Inc., priority 2002, dated 2007).

Molecular target: T1, CYP24 (Homo sapiens, UniProt Q07973)
T1 construct: The full-length CYP24 cDNA was amplified using one-step RT-PCR kit; expressed in transfected cells
T1 sequence (Q07973 36-514): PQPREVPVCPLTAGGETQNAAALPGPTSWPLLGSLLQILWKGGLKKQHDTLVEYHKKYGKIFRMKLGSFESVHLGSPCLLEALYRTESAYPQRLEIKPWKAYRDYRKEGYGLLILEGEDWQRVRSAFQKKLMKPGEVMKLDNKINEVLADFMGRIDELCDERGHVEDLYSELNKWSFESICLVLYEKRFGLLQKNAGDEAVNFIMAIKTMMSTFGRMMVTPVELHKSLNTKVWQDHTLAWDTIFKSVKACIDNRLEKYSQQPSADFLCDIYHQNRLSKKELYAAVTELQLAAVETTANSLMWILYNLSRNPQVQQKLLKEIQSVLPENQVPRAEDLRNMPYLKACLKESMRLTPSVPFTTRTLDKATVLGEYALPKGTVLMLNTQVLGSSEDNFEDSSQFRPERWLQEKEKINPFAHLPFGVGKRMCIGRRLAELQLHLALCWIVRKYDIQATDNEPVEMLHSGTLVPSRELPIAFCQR
Experiment: CYP24 enzyme assay using stable CYP24-V79 cells
Format: cell-based
Conditions: Bligh-Dyer extraction, organic phase from 3 hours analyzed by HPLC
Experimental: CYP24/V79 cells were suspended, counted, seeded on well plates and extracted using the Bligh-Dyer extraction method. […] To induce cells, media was removed and the cells washed with 1× PBS buffer. […] Next, a cell suspension was prepared at the day of assay by removing the medium and washing the cell with PBS. 2 ml tripsin/EDTA was added to the plate which was kept in 37° C. for 5 min. Next, 3 ml EDTA medium+1% FCS was added followed by transfer to a 50 ml tube. The plate was washed with 5 ml PBS and mixed. The mix was centrifuged (2,000 rpm, 5 min) and the suspended cells pelleted in DMEM medium+1% BSA. […] About 5 mL 1× PBS buffer was added to collect cells from the plate and then placed in a 50 mL tube followed by repetition with second cell line. About 5 mL 1× PBS buffer was added to further wash the plate and added to the original 50 mL tube. Tubes were centrifuged (2,000 rpm/800 g for 6 minutes) and the supernatant removed. […] The cells were counted via hemocytometer and density adjusted to 250,000 cells/150 μL (1.67 million/1 mL) and then 150 μL added to appropriately labeled wells of 48-well plate. […] The cells were counted and cell density was adjusted to 500,000/150 μL. […] The plate is counted in a scintillation counter. Enzyme activity was then calculated.

effect on CYP24 activity (inhibitor/activator): inhibitors
SMILES: CC[C@H]1OC(=O)[C@H](C)[C@@H](O[C@H]2C[C@@](C)(OC)[C@@H](O)[C@H](C)O2)[C@H](C)[C@@H](O[C@@H]2O[C@H](C)C[C@H](N(C)C)[C@H]2O)[C@](C)(O)C[C@@H](C)C(=O)[C@H](C)[C@@H](O)[C@]1(C)O [erythromycin]
